Assay results as given in patent publication US6737383B1, “Herbicidal oxadiazolidines” (priority 1999, dated 2004).

Key:
cocklebur = assay: Test B pre/postemergence cocklebur; assay type: in vivo, Xanthium strumarium
Procedure, shortened: (§1)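 Herbicidal effect was estimated by eye on a ten-point control scale after plants spent twelve to sixteen days in a greenhouse following soil or foliar treatment. Foliar sprays targeted plants at one to four leaves; all doses were formulated in a non-phytotoxic solvent with surfactant.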

sugar beet = assay: Test B pre/postemergence sugar beet; assay type: in vivo, Beta vulgaris
Procedure, shortened: as §1

bedstraw = assay: Test B pre/postemergence bedstraw; assay type: in vivo, Galium aparine
Procedure, shortened: as §1

soybean = assay: Test B pre/postemergence soybean; assay type: in vivo, Glycine max
Procedure, shortened: as §1

pigweed = assay: Test B pre/postemergence pigweed; assay type: in vivo, Amaranthus retroflexus
Procedure, shortened: as §1

rape = assay: Test B pre/postemergence rape; assay type: in vivo, Brassica napus
Procedure, shortened: as §1

velvetleaf = assay: Test B pre/postemergence velvetleaf; assay type: in vivo, Abutilon theophrasti
Procedure, shortened: as §1

wild oat = assay: Test B pre/postemergence wild oat; assay type: in vivo, Avena fatua
Procedure, shortened: as §1

purple nutsedge = assay: Test B pre/postemergence purple nutsedge; assay type: in vivo, Cyperus rotundus
Procedure, shortened: as §1

corn = assay: Test B pre/postemergence corn; assay type: in vivo, Zea mays
Procedure, shortened: as §1

morningglory = assay: Test B pre/postemergence morningglory; assay type: in vivo, Ipomoea hederacea
Procedure, shortened: as §1

crabgrass = assay: Test B pre/postemergence crabgrass; assay type: in vivo, Digitaria sanguinalis
Procedure, shortened: as §1

giant foxtail = assay: Test B pre/postemergence giant foxtail; assay type: in vivo, Setaria faberii
Procedure, shortened: as §1

blackgrass = assay: Test B pre/postemergence blackgrass; assay type: in vivo, Alopecurus myosuroides
Procedure, shortened: as §1

surinam grass = assay: Test B pre/postemergence surinam grass; assay type: in vivo, Brachiaria decumbens
Procedure, shortened: as §1

wheat = assay: Test B pre/postemergence wheat; assay type: in vivo, Triticum aestivum
Procedure, shortened: as §1

[1] = Postemergence, Rate 62 g/ha, scale 0 to 10, 0 is no effect, 10 is complete control
[2] = Postemergence, Rate 125 g/ha, scale of 0 to 10 where 0 is no effect and 10 is complete control
[3] = Preemergence, Rate 125 g/ha, scale of 0 to 10 where 0 is no effect and 10 is complete control
[4] = Preemergence, Rate 250 g/ha, scale 0 (no effect) to 10 (complete control)
[5] = Rate 62 g/ha, Preemergence, scale 0 to 10
[6] = Rate 250 g/ha, Postemergence, scale 0 to 10, 0 is no effect, 10 is complete control
[7] = Rate 500 g/ha, Postemergence, scale 0 to 10, 0 is no effect, 10 is complete control
[8] = Rate 500 g/ha, Preemergence, scale 0 to 10 (0 no effect, 10 complete control)
[9] = Preemergence, Rate 62 g/ha, scale of 0 to 10 where 0 is no effect and 10 is complete control
[10] = Preemergence, Rate 125 g/ha, scale 0 to 10, 0 is no effect, 10 is complete control
[11] = Preemergence, Rate 250 g/ha, scale 0 to 10, 0 is no effect, 10 is complete control
[12] = Preemergence, Rate 500 g/ha, scale of 0 to 10 where 0 is no effect and 10 is complete control
[13] = Preemergence, Rate 500 g/ha, scale 0 to 10, 0 is no effect, 10 is complete control

## CC(C)N(C(=O)n1oc(=O)n(CC(F)F)c1=O)c1ccc(Cl)cc1 [Compound 745]
cocklebur; [1]
  Plant response rating, Cocklebur: 0
cocklebur; [2]
  Cocklebur plant response rating: 0
cocklebur; [3]
  Plant response rating, Cocklebur: 0
cocklebur; [4]
  Cocklebur plant response rating: 0
cocklebur; [5]
  Cocklebur plant response rating: 0
cocklebur; [6]
  Cocklebur plant response rating: 0
cocklebur; [7]
  Cocklebur plant response rating: 4
cocklebur; [8]
  Cocklebur plant response rating: 0
Sugar beet; [1]
  Plant response rating, Sugarbeets: 2
Sugar beet; [2]
  Sugarbeets plant response rating: 2
Sugar beet; [3]
  Plant response rating, Sugarbeets: 4
Sugar beet; [4]
  Sugarbeets plant response rating: 4
Sugar beet; [5]
  Sugarbeets plant response rating: 0
Sugar beet; [6]
  Sugarbeets plant response rating: 4
Sugar beet; [7]
  Sugarbeets plant response rating: 4
Sugar beet; [8]
  Sugarbeets plant response rating: 4
bedstraw; [4]
  Bedstraw plant response rating: 5
bedstraw; [5]
  Bedstraw plant response rating: 0
bedstraw; [6]
  Bedstraw plant response rating: 7
bedstraw; [7]
  Bedstraw plant response rating: 9
bedstraw; [8]
  Bedstraw plant response rating: 5
soybean; [1]
  Plant response rating, Soybean: 3
soybean; [2]
  Soybean plant response rating: 3
soybean; [3]
  Plant response rating, Soybean: 0
soybean; [4]
  Soybean plant response rating: 0
soybean; [5]
  Soybean plant response rating: 0
soybean; [6]
  Soybean plant response rating: 5
soybean; [7]
  Soybean plant response rating: 5
soybean; [8]
  Soybean plant response rating: 0
pigweed; [1]
  Plant response rating, Redroot pigweed: 2
pigweed; [2]
  Redroot pigweed plant response rating: 2
pigweed; [3]
  Plant response rating, Redroot pigweed: 9
pigweed; [4]
  Redroot pigweed plant response rating: 10
pigweed; [5]
  Redroot pigweed plant response rating: 7
pigweed; [6]
  Redroot pigweed plant response rating: 5
pigweed; [7]
  Redroot pigweed plant response rating: 6
pigweed; [8]
  Redroot pigweed plant response rating: 10
rape; [1]
  Plant response rating, Rape: 0
rape; [2]
  Rape plant response rating: 0
rape; [3]
  Plant response rating, Rape: 5
rape; [4]
  Rape plant response rating: 7
rape; [5]
  Rape plant response rating: 0
rape; [6]
  Rape plant response rating: 5
rape; [7]
  Rape plant response rating: 7
rape; [8]
  Rape plant response rating: 7
velvetleaf; [1]
  Plant response rating, Velvetleaf: 0
velvetleaf; [2]
  Velvetleaf plant response rating: 0
velvetleaf; [3]
  Plant response rating, Velvetleaf: 0
velvetleaf; [4]
  Velvetleaf plant response rating: 4
velvetleaf; [5]
  Velvetleaf plant response rating: 0
velvetleaf; [6]
  Velvetleaf plant response rating: 3
velvetleaf; [7]
  Velvetleaf plant response rating: 7
velvetleaf; [8]
  Velvetleaf plant response rating: 6
Wild oat; [1]
  Plant response rating, Wild oats: 0
Wild oat; [2]
  Wild oats plant response rating: 0
Wild oat; [3]
  Plant response rating, Wild oats: 6
Wild oat; [4]
  Wild oats plant response rating: 8
Wild oat; [5]
  Wild oats plant response rating: 2
Wild oat; [6]
  Wild oats plant response rating: 4
Wild oat; [7]
  Wild oats plant response rating: 4
Wild oat; [8]
  Wild oats plant response rating: 8
Purple nutsedge; [1]
  Plant response rating, Nutsedge: 0
Purple nutsedge; [2]
  Nutsedge plant response rating: 0
Purple nutsedge; [4]
  Nutsedge plant response rating: 0
Purple nutsedge; [5]
  Nutsedge plant response rating: 0
Purple nutsedge; [6]
  Nutsedge plant response rating: 0
Purple nutsedge; [7]
  Nutsedge plant response rating: 0
Purple nutsedge; [8]
  Nutsedge plant response rating: 5
corn; [1]
  Plant response rating, Corn: 0
corn; [2]
  Corn plant response rating: 0
corn; [3]
  Plant response rating, Corn: 0
corn; [4]
  Corn plant response rating: 2
corn; [5]
  Corn plant response rating: 0
corn; [6]
  Corn plant response rating: 0
corn; [7]
  Corn plant response rating: 0
corn; [8]
  Corn plant response rating: 2
morningglory; [1]
  Plant response rating, Morningglory: 3
morningglory; [2]
  Morningglory plant response rating: 3
morningglory; [3]
  Plant response rating, Morningglory: 0
morningglory; [4]
  Morningglory plant response rating: 0
morningglory; [5]
  Morningglory plant response rating: 0
morningglory; [6]
  Morningglory plant response rating: 3
morningglory; [7]
  Morningglory plant response rating: 8
morningglory; [8]
  Morningglory plant response rating: 3
crabgrass; [1]
  Plant response rating, Crabgrass: 4
crabgrass; [2]
  Crabgrass plant response rating: 4
crabgrass; [3]
  Plant response rating, Crabgrass: 10
crabgrass; [4]
  Crabgrass plant response rating: 10
crabgrass; [5]
  Crabgrass plant response rating: 7
crabgrass; [6]
  Crabgrass plant response rating: 9
crabgrass; [7]
  Crabgrass plant response rating: 9
crabgrass; [8]
  Crabgrass plant response rating: 10
Giant foxtail; [1]
  Plant response rating, Giant foxtail: 2
Giant foxtail; [2]
  Giant foxtail plant response rating: 2
Giant foxtail; [3]
  Plant response rating, Giant foxtail: 10
Giant foxtail; [4]
  Giant foxtail plant response rating: 10
Giant foxtail; [5]
  Giant foxtail plant response rating: 10
Giant foxtail; [6]
  Giant foxtail plant response rating: 9
Giant foxtail; [7]
  Giant foxtail plant response rating: 9
Giant foxtail; [8]
  Giant foxtail plant response rating: 10
blackgrass; [1]
  Plant response rating, Blackgrass: 3
blackgrass; [2]
  Blackgrass plant response rating: 3
blackgrass; [3]
  Plant response rating, Blackgrass: 6
blackgrass; [4]
  Blackgrass plant response rating: 9
blackgrass; [5]
  Blackgrass plant response rating: 3
blackgrass; [6]
  Blackgrass plant response rating: 8
blackgrass; [7]
  Blackgrass plant response rating: 9
blackgrass; [8]
  Blackgrass plant response rating: 9
Surinam grass; [1]
  Plant response rating, B. signalgrass: 0
Surinam grass; [2]
  B. signalgrass plant response rating: 0
Surinam grass; [9]
  B. signalgrass plant response rating: 8
Surinam grass; [3]
  Plant response rating, B. signalgrass: 9
Surinam grass; [4]
  B. signalgrass plant response rating: 10
Surinam grass; [6]
  B. signalgrass plant response rating: 6
Surinam grass; [7]
  B. signalgrass plant response rating: 6
Surinam grass; [8]
  B. signalgrass plant response rating: 10
wheat; [1]
  Plant response rating, Wheat: 0
wheat; [2]
  Wheat plant response rating: 0
wheat; [3]
  Plant response rating, Wheat: 0
wheat; [4]
  Wheat plant response rating: 0
wheat; [5]
  Wheat plant response rating: 0
wheat; [6]
  Wheat plant response rating: 0
wheat; [7]
  Wheat plant response rating: 3
wheat; [8]
  Wheat plant response rating: 0

## CC(C)N(C(=O)n1oc(=O)n(CCC2OCCCO2)c1=O)c1ccc(F)cc1F [Compound 502]
cocklebur; [9]
  Plant response rating, Cocklebur: 0
cocklebur; [10]
  Cocklebur plant response rating: 0
cocklebur; [11]
  Cocklebur plant response rating: 0
cocklebur; [12]
  Cocklebur plant response rating: 9
Sugar beet; [9]
  Plant response rating, Sugarbeets: 0
Sugar beet; [10]
  Sugarbeets plant response rating: 2
Sugar beet; [12]
  Sugarbeets plant response rating: 7
bedstraw; [9]
  Plant response rating, Bedstraw: 10
bedstraw; [11]
  Bedstraw plant response rating: 10
bedstraw; [13]
  Bedstraw plant response rating: 10
soybean; [9]
  Plant response rating, Soybean: 0
soybean; [10]
  Soybean plant response rating: 4
soybean; [12]
  Soybean plant response rating: 5
pigweed; [9]
  Plant response rating, Redroot pigweed: 9
pigweed; [10]
  Redroot pigweed plant response rating: 9
pigweed; [12]
  Redroot pigweed plant response rating: 10
rape; [9]
  Plant response rating, Rape: 2
rape; [10]
  Rape plant response rating: 3
rape; [12]
  Rape plant response rating: 9
velvetleaf; [9]
  Plant response rating, Velvetleaf: 0
velvetleaf; [10]
  Velvetleaf plant response rating: 5
velvetleaf; [12]
  Velvetleaf plant response rating: 8
Wild oat; [9]
  Plant response rating, Wild oats: 9
Wild oat; [10]
  Wild oats plant response rating: 9
Wild oat; [12]
  Wild oats plant response rating: 10
Purple nutsedge; [9]
  Plant response rating, Nutsedge: 0
corn; [9]
  Plant response rating, Corn: 0
corn; [10]
  Corn plant response rating: 8
corn; [12]
  Corn plant response rating: 9
morningglory; [9]
  Plant response rating, Morningglory: 0
morningglory; [10]
  Morningglory plant response rating: 2
morningglory; [12]
  Morningglory plant response rating: 4
crabgrass; [9]
  Plant response rating, Crabgrass: 10
crabgrass; [10]
  Crabgrass plant response rating: 10
crabgrass; [12]
  Crabgrass plant response rating: 10
Giant foxtail; [9]
  Plant response rating, Giant foxtail: 10
Giant foxtail; [10]
  Giant foxtail plant response rating: 10
Giant foxtail; [12]
  Giant foxtail plant response rating: 10
blackgrass; [9]
  Plant response rating, Blackgrass: 10
blackgrass; [10]
  Blackgrass plant response rating: 10
blackgrass; [11]
  Blackgrass plant response rating: 10
blackgrass; [12]
  Blackgrass plant response rating: 10
Surinam grass; [9]
  Plant response rating, B. signalgrass: 6
Surinam grass; [10]
  B. signalgrass plant response rating: 9
Surinam grass; [11]
  B. signalgrass plant response rating: 10
Surinam grass; [13]
  B. signalgrass plant response rating: 10
wheat; [9]
  Plant response rating, Wheat: 0
wheat; [10]
  Wheat plant response rating: 3
wheat; [12]
  Wheat plant response rating: 7
